Results from patent publication US6627653B2, “Anticonvulsant derivatives useful for the treatment of depression” (Ortho-McNeil Pharmaceutical, Inc., priority 2000, dated 2003).
Like-named read-outs stand apart in the source and are kept apart here.

Experiments:
[1] = Clinical case study, Example 2: topiramate add-on therapy; assay type: in vivo, human; settings: for previous pharmacological treatment of patient's depression, outcome: treatment history of the Example 2 patient
Procedure: Initially the patient was started on topiramate add-on therapy at 25 mg/day, with increased dosage to 150 mg/day over the course of one month, in response to the patient's clinical behavior (the patient experienced suicidal ideation). One month later, the topiramate therapy was further increased to 300 mg/day, with the patient also taking 20 mg/day methylphenidate and 150 mg/day venlafaxine.

[2] = several rodent models of epilepsy; cited from earlier work
[3] = animal model of kindled epilepsy; cited from earlier work
[4] = Clinical case study, Example 1: topiramate added to existing pharmacotherapy; assay type: in vivo, human
Procedure: In the first case, the patient was a person who had suffered from depression for 25 years.
Topiramate was prescribed for the patient as add-on therapy to existing treatment of venlafaxine at 225 mg/day and mirtazapine at 30 mg/day. Topiramate treatment was initiated at 25 mg/day, with increased dosage to 150 mg/day. […] After six months, mirtazapine was withdrawn and topiramate daily dosage increased to 200 mg/day.
Following one year, topiramate and venlafaxine were withdrawn because of a surgical procedure. […] The patient was subsequently restarted on topiramate at 300 mg/day.

[5] = adjunctive therapy or monotherapy; cited from earlier work

SMILES: CN(C)CCC=C1c2ccccc2CCc2ccccc21 [amitriptyline]
- previous pharmacological treatment of patient's depression, outcome [1]: unsuccessful

SMILES: N[C@@H]1C[C@H]1c1ccccc1 (racemic) [tranylcypromine]
- previous pharmacological treatment of patient's depression, outcome [1]: unsuccessful

SMILES: CC1(C)O[C@@H]2[C@@H](CO[C@@]3(COS(N)(=O)=O)OC(C)(C)O[C@@H]23)O1 [topiramate, 2,3:4,5-bis-O-(1-methylethylidene)-β-D-fructopyranose sulfamate]
- block of seizures [2]: effectively block seizures
- block of seizures [3]: effectively block seizures
- clinical evaluation of depression ([4]; after eight months, topiramate 300 mg/day): very much improved
- clinical evaluation of depression ([4]; after six months, mirtazapine withdrawn, topiramate 200 mg/day): very much improved
- clinical evaluation of depression ([4]; after two months, topiramate 150 mg/day add-on to venlafaxine 225 mg/day and mirtazapine 30 mg/day): very mild depressive
- patient-reported state after restart ([4]; restarted on topiramate 300 mg/day after relapse, following six months of treatment): feeling very well
- efficacy in treating seizures [5]: effective
- patient-reported state ([1]; after three month of treatment): never felt so well
- mood state ([1]; at eight months of therapy, venlafaxine 150 mg/day and topiramate 300 mg/day): normothymic
- clinical rating of depression ([1]; topiramate 300 mg/day with methylphenidate 20 mg/day and venlafaxine 150 mg/day, about two months): much improved
